Experimental data published in patent publication US20200369674A1, “ANTI-PAIN COMPOUND AND PREPARATION METHOD THEREOF” (LUNAN PHARMACEUTICAL GROUP CORPORATION, priority 2017, published 2020).

Key:
CCI rats [1] = assay: Mechanical stimulation paw withdrawal threshold (MWT) in CCI rats; assay type: in vivo, SD rats; conditions: 100 mg/kg i.g. daily; for inhibition rate (absolute %): PTE % vs vehicle; for MWT: mean±SEM; for inhibition rate (relative %): relative to sham minus vehicle
Description: (§1) SD rats, body weight 180 g-220 g, half of them being male and the other half being female, provided by the Department of Laboratory Animals, Peking University. The rats were raised in a standard environment with temperature of 22±0.5° C. and relative humidity of 55±5%, 12 h/12 h light-dark cycle, and fed with standard feed.
(§2) Rat was anesthetized with pentobarbital sodium (60 mg/kg, i.p.), the right hind limb was surgically shaved, fixed in the prone position, a longitudinal incision was made along the middle of the right hind limb of the rat, the muscle was bluntly separated, the sciatic nerve was exposed, and the sciatic nerve bifurcate proximal end was loosely ligated with 4-0 silk suture for 4 times, with an interval of about 1 mm each time, in which the degree of tightness was suitable when it was observed that the right hind leg was slightly shaken. After ligation, the muscle and skin were sutured in sequence. For the sham-operated group, the sciatic nerve was only exposed, but not ligated. The success of modeling was determined by observing whether the hind limb of the rat's operation side was closed, slightly valgus and often vacated, and by measuring the mechanical stimulation paw withdrawal threshold and the thermal stimulation paw withdrawal latency of the rat.
(§3) Before surgery, the mechanical stimulation paw withdrawal thresholds and the thermal stimulation paw withdrawal latencies in the rats were determined, and the rats were grouped as: sham operation group (sham), vehicle group (double-distilled water, i.g.), DXL-A-22 group (2 mg/kg, i.g.), DXL-A-24 group (1 mg/kg, i.g.), and Gabapentin group (100 mg/kg, i.g.). All compounds and drugs were dissolved in double-distilled water, and given by intragastric administration at 1 mL/100 g. From the first day after surgery, the administration was carried out every day, and the mechanical stimulation paw withdrawal threshold and the thermal stimulation paw withdrawal latency were measured 2 hours after administration.
The mechanical stimulation paw withdrawal threshold (MWT) of rats was detected by von Frey electronic pain tester. The measurement was carried out on the days 5, 7 and 14 after operation. The rats were placed in a transparent plexiglass box (whose bottom was a wire mesh with a gap of 1 mm^2) to adapt to the environment for 30 min. After the rats had no exploration action, the von Frey electronic pain tester was used to stimulate the middle position of paw at the operation side of the rat, and the maximum force caused by rat paw withdrawal response (i.e., MWT) was recorded. The inhibition rate of the compound was calculated according to the following formula:
Absolute increase rate (i.e., PTE %): PTE %=(MWT of test group−MWT of vehicle group)/MWT of vehicle group×100 (1)
Relative increase rate: Inhibition rate %=(MWT of test group−MWT of vehicle group)/(MWT of Sham operation group−MWT of vehicle group)×100 (2)

CCI rats [2] = assay: Thermal stimulation paw withdrawal latency (PWL) in CCI rats; assay type: in vivo, SD rats; conditions: 100 mg/kg i.g. daily; for PWL: hot plate 50.5° C., cut-off 14s, mean±SEM
Description: as §1, §2, §3
The thermal stimulation paw withdrawal latency (PWL) was measured by a hot plate method. The measurement was carried out on the days 5, 7 and 14 after operation. The temperature of the hot plate was 50.5° C. Timing started when the rat was placed on the hot plate, and stopped when the shaking and foot licking responses of the rat appeared, and this time was the PWL of the rat. The hot plate cut-off time was 14s, and the percentage of analgesia (i.e., MPE %) was calculated according to formula (3):
MPE %=(PWL of test group−PWL of vehicle group)/(cut-off time−PWL of vehicle group)×100 (3)

ICR mice [3] = assay: Formalin experiment; assay type: in vivo; conditions: Mus musculus, po, 2 h; 1 mg/kg intragastric, 2.5% formalin two hours after administration, phase II 10-60 minutes; read-out: Phase II pain inhibition rate (%)
Description: (§4) ICR mice, 18-22 g, half of them being male and the other half being female, provided by the Department of Laboratory Animals, Peking University (License No.: SCXK (Beijing) 2016-0010).
ICR mice, half of them being male and the other half being female, were randomly grouped, 8 mice per group. Vehicle control group (double-distilled water) and groups for samples to be tested were set, in which the compounds and doses thereof were shown in Table 3. All drugs were dissolved in double-distilled water before administration, and given by intragastric administration at predetermined doses. Two hours after administration, the mice were injected with 20 ul of 2.5% formalin solution in the right hind foot, and the time (s) of licking or biting foot was recorded as an index of pain response, in which 0-5 minutes was phase I, 10-60 minutes was phase II, and the total observation time was 60 minutes. The phase II pain inhibition rate of compound in mice was calculated according to the following formula:
Inhibition rate %=(time of licking or biting foot in vehicle control group−time of licking or biting foot in test group)/time of licking or biting foot in vehicle control group×100

ICR mice [4] = assay: Hot plate test; assay type: in vivo; conditions: Mus musculus, po; 1 mg/kg intragastric, latency 2.0 hours after administration, hot plate 55° C.; read-out: PTE %
Description: as §4
The temperature of hot plate was adjusted to 55° C., and the responses of mouse such as licking hind feet and jumping were used as the observation indexes. The time from the placement of mice on copper plate to the appearance of the above responses was defined as latency time. The latency time was measured for three times 30 minutes before administration, and the average value thereof was used as basic threshold, or baseline latency (BL). The animals with a latency time greater than 15 s and less than 5 s were removed, and the residual mice were randomly grouped, 8 animals per group.
Vehicle control group (double-distilled water) and groups for samples to be tested (the compounds and doses thereof were shown in Table 1) were set. All drugs were dissolved in […] before administration, and given by intragastric administration. The latency time was measured 2.0 hours after administration. Percentage of Pain Threshold Elevated Rate (PTE %) of compound on mice was calculated according to the following formula:
PTE %=(latency time of test group−latency time of vehicle control group)/latency time of vehicle control group×100

ICR mice [5] = assay: Xylene-induced mouse ear swelling test (Effect Example 4); assay type: in vivo; set-up: key to Inhibition rate (%): Symbol “—” indicates that the data obtained at this dose was not significantly different from the vehicle control group; conditions: 1 mg/kg intragastric, 50 uL xylene two hours after administration
Description: as §4
ICR mice were randomly grouped, 8 mice per group, half of them being male and the other half being female. Vehicle control group (double-distilled water) and groups for samples to be tested (the compounds and doses thereof were shown in Table 4). All drugs were dissolved in double-distilled water immediately before administration, and given by intragastric administration at predetermined doses. Two hours after administration, 50 uL of xylene was smeared evenly on the inner and outer sides of right ear of mouse. After 30 minutes, the left and right ears of mouse were cut, and circular ear pieces of the same size were punched at the same position on the left and right ears, and weighed. The ear swelling inhibition rate of compound in mice was calculated according to the formula.
Inhibition rate %=(degree of ear swelling in vehicle control group−degree of ear swelling in test group)/degree of ear swelling in vehicle control group×100

ICR mice [6] = assay: Acetic acid writhing test; assay type: in vivo; set-up: key to Inhibition rate (%): Symbol “—” indicates that the data obtained at this dose was not significantly different from the vehicle control group; conditions: 0.6% acetic acid ip two hours after administration
Description: as §4
ICR mice, half of them being male and the other half being female, were randomly grouped, 8 mice per group. Vehicle control group (double-distilled water), ibuprofen control group, and groups for samples to be tested (the compounds and doses thereof were shown in Table 2) were set. All drugs were dissolved in double-distilled water before administration, and given by intragastric administration at predetermined doses. Two hours after the administration, the mice were intraperitoneally injected with 0.6% acetic acid solution (10 ml/kg, ip), and the number of times the mice writhed (abdomen depressed, buttock raised, body elongated) was recorded within 5-20 minutes. The inhibition rate % of compound on writhing pain in mice was calculated according to the following formula.
Inhibition rate %=(number of writhing times in vehicle control group−number of writhing times in test group)/number of writhing times in vehicle control group×100

[7] = Day 5 after operation, section 3.1
[8] = Day 5 after operation, section 3.3
[9] = Day 7 after operation, section 3.1
[10] = Day 7 after operation, section 3.3
[11] = Day 14 after operation, section 3.1
[12] = Day 14 after operation, section 3.3
[13] = Day 5 after operation, section 3.2
[14] = Day 5 after operation, section 3.4
[15] = Day 7 after operation, section 3.2
[16] = Day 7 after operation, section 3.4
[17] = Day 14 after operation, section 3.2
[18] = Day 14 after operation, section 3.4

NCC1(CC(=O)O)CCCCC1 [Gabapentin, reference compound]
inhibition rate (absolute %) (CCI rats [1]; [7]): 99.36%
inhibition rate (absolute %) (CCI rats [1]; [8]): 87.98%
MWT (CCI rats [1]; [7]): 21.73 ± 0.49**/
MWT (CCI rats [1]; [8]): 21.73 ± 0.49**/
inhibition rate (relative %) (CCI rats [1]; [7]): 40.08%
inhibition rate (relative %) (CCI rats [1]; [8]): 41.04%
inhibition rate (absolute %) (CCI rats [1]; [9]): 128.67%
inhibition rate (absolute %) (CCI rats [1]; [10]): 123.00%
MWT (CCI rats [1]; [9]): 23.37 ± 1.34**/
MWT (CCI rats [1]; [10]): 23.37 ± 1.34**/
inhibition rate (relative %) (CCI rats [1]; [9]): 47.56%
inhibition rate (relative %) (CCI rats [1]; [10]): 49.94%
inhibition rate (absolute %) (CCI rats [1]; [11]): 101.42%
inhibition rate (absolute %) (CCI rats [1]; [12]): 83.36%
MWT (CCI rats [1]; [11]): 21.27 ± 0.82**/
MWT (CCI rats [1]; [12]): 21.27 ± 0.82**/
inhibition rate (relative %) (CCI rats [1]; [11]): 38.46%
inhibition rate (relative %) (CCI rats [1]; [12]): 36.91%
PWL (CCI rats [2]; [13]): 11.37 ± 0.32**/
PWL (CCI rats [2]; [14]): 11.37 ± 0.32**/
MPE(%) (CCI rats [2]; [13]): 59.72%
MPE(%) (CCI rats [2]; [14]): 54.02%
PWL (CCI rats [2]; [15]): 11.76 ± 0.34**/
PWL (CCI rats [2]; [16]): 11.76 ± 0.34**/
MPE(%) (CCI rats [2]; [15]): 66.16%
MPE(%) (CCI rats [2]; [16]): 62.48%
PWL (CCI rats [2]; [17]): 11.88 ± 0.40**/
PWL (CCI rats [2]; [18]): 11.88 ± 0.40**/
MPE(%) (CCI rats [2]; [17]): 66.51%
MPE(%) (CCI rats [2]; [18]): 67.88%

Br.Fc1ccc(N2CC[N+]3(CCCC3)CC2)cc1F [DXL-A-21, 8-(3,4-difluorophenyl)-5,8-diazaspiro[4.5]decan-5-ium bromide]
inhibition in vivo at 1 mg/kg (ICR mice [3]): 36.6%
change in vivo at 1 mg/kg (ICR mice [4]): 36.6%
inhibition in vivo at 1 mg/kg (ICR mice [5]; Mus musculus, po, 2 h, read-out: Inhibition rate (%)): 42.5%
Inhibition rate (%) (ICR mice [6]; 1 mg/kg intragastric): —

Fc1ccccc1N1CC[N+]2(CCCC2)CC1.[Br-] [DXL-A-18, 8-(2-fluorophenyl)-5,8-diazaspiro[4.5]decan-5-ium bromide]
inhibition in vivo at 1 mg/kg (ICR mice [3]): 22%
Inhibition rate (%) (ICR mice [5]): —
inhibition in vivo at 1 mg/kg (ICR mice [6]; Mus musculus, po, 2 h, 1 mg/kg intragastric, read-out: Inhibition rate (%)): 21.7%

CC(C)Cc1ccc(C(C)C(=O)O)cc1 (centres unmarked) [Ibuprofen table, Ibuprofen, reference compound]
inhibition in vivo at 200 mg/kg (ICR mice [6]; Mus musculus, po, 2 h, 200 mg/kg intragastric, read-out: Inhibition rate (%)): 49.1%
